Data set [1] is described as follows: Volume of distribution at steady state in Sprague-Dawley rat at 2 mg/kg, iv and 5 mg/kg, po. It is filed as ADME, organism-based. The conditions noted are these: in vivo, read-out: Vdss.
For data set [2], the system named is Rattus norvegicus. The data set is described as follows: Toxicity in rat administered as single dose. The note with it: in vivo. It is filed as organism-based.
Data set [3] in a line: Clearance in Beagle dog at 0.5 mg/kg, iv and 1 mg/kg, po. The note with it: in vivo. It is filed as ADME, organism-based, Canis lupus familiaris.
The nature of data set [4]: Effective half life in Sprague-Dawley rat at 2 mg/kg, iv and 5 mg/kg, po. The conditions noted are these: in vivo, read-out: t1/2eff (converted). It is filed as ADME, organism-based.
Data set [5] can be described thus: Solubility at pH 9.0. It is filed as physicochemical. The note with it: buffer.
A short description of data set [6]: Antiplatelet activity in human platelet rich plasma assessed as inhibition of ADP-induced platelet aggregation by chronolog PRP aggregometry assay. It counts as functional.
Data set [7] in a line: Protein binding in human plasma assessed as fraction unbound at 0.2 uM.
Data set [8] has as its target Voltage-gated inwardly rectifying potassium channel KCNH2 (Homo sapiens, UniProt Q12809). As to the kind of experiment: Inhibition of human ERG.
A short description of data set [9]: Metabolic stability in rat microsomes. It is filed as ADME, Microsome.
A short description of data set [10]: Antiplatelet activity in human platelet rich plasma assessed as inhibition of ADP-induced platelet aggregation. It is filed as functional.
A short description of data set [11]: Solubility at pH 2.0. The note with it: buffer. It counts as physicochemical.
For data set [12], the target named is T1, P2Y purinoceptor 12 (Homo sapiens, UniProt Q9H244). As to the kind of experiment: Inhibition of human P2Y12 receptor expressed in CHO cells in presence of 0.4% human serum albumin.
T1 sequence (Q9H244 whole entry): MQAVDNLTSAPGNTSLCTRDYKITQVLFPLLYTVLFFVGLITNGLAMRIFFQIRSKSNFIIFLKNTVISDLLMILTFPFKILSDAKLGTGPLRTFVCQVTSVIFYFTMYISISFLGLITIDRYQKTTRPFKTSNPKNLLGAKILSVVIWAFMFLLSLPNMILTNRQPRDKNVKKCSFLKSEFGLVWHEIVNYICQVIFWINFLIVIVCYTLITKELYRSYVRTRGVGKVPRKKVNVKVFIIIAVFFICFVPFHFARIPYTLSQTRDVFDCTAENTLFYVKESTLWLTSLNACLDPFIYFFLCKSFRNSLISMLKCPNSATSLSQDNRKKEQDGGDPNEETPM
The nature of data set [13]: Protein binding in human plasma assessed as fraction unbound at 10 uM.
Data set [14] concerns the target T1, P2Y purinoceptor 12. As to the kind of experiment: Inhibition of human P2Y12 receptor expressed in CHO cells.
Data set [15] in a line: Effective half life in Beagle dog at 0.5 mg/kg, iv and 1 mg/kg, po. It counts as ADME, organism-based, Canis lupus familiaris. The note with it: in vivo.
Data set [16] can be described thus: Clearance in Sprague-Dawley rat at 2 mg/kg, iv and 5 mg/kg, po. It is filed as ADME, organism-based. The conditions noted are these: in vivo.
Data set [17] in a line: Solubility at pH 6.5. It counts as physicochemical. The conditions noted are these: buffer.
A short description of data set [18]: Volume of distribution at steady state in Beagle dog at 0.5 mg/kg, iv and 1 mg/kg, po. It counts as ADME, organism-based, Canis lupus familiaris. The note with it: in vivo, read-out: Vdss.
Data set [19] can be described thus: Antiplatelet activity in human platelet rich plasma assessed as inhibition of ADP-induced platelet aggregation relative to AZD-6140. It is filed as functional.
Data set [20] in a line: Protein binding in human plasma assessed as fraction unbound at 2 uM.
Data set [21] in a line: Metabolic stability in human microsomes. It counts as ADME, Microsome.
Data set [22] can be described thus: in vivo. The note with it: Sprague-Dawley, rat, po, 5 mg/kg.

pIC50, pKi: −log10 of the molar value. ≈ marks a conversion by molar mass, not a printed value.

Voltage-gated inwardly rectifying potassium channel KCNH2, sequence (Q12809 whole entry): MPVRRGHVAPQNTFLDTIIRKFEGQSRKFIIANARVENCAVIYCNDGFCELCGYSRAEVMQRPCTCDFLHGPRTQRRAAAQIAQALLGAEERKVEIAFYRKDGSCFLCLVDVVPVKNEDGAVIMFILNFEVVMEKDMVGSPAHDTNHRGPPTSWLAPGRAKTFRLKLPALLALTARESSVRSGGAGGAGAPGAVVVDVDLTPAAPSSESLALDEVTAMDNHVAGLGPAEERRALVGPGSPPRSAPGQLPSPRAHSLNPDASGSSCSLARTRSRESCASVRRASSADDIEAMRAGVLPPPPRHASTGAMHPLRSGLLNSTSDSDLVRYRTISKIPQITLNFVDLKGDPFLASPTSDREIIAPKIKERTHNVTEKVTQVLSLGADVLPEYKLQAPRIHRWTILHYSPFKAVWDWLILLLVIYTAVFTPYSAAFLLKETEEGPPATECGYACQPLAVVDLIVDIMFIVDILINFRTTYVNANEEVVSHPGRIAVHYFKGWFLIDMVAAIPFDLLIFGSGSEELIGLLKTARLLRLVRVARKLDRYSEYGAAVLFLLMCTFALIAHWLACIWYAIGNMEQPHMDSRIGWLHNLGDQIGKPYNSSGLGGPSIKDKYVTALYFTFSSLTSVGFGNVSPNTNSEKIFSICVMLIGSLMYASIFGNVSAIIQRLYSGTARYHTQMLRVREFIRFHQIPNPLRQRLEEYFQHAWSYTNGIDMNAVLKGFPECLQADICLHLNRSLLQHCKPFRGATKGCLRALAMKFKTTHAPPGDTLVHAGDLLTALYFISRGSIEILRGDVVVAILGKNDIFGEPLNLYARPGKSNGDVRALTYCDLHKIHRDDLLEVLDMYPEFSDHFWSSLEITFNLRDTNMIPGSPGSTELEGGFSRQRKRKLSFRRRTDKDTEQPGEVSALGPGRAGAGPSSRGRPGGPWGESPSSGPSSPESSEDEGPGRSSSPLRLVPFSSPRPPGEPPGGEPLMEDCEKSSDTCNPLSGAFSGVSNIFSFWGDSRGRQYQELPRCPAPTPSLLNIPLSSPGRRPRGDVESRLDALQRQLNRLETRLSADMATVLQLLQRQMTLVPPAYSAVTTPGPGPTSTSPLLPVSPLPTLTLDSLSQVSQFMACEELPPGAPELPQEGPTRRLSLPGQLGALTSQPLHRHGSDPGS

As to `CCCCOC(=O)N1CCN(C(=O)[C@H](CCC(=O)O)NC(=O)c2cc(N3CCC(C(=O)N4CCCC4)CC3)cc(-c3ccccc3)n2)CC1`, the Vd in data set [1] came to 0.7 L/kg; in data set [18] it was 0.22 L/kg. The Activity entry in data set [2] was “Non-toxic”. Besides, the figures for the clearance in [3] and in [16] were 3 mL/min/kg and 5 mL/min/kg, respectively. Moreover, the half-life in data set [4] was 90 min; in data set [15], 48 min. The solubility (commonly the dissolved amount per volume that the medium holds) amounted to 969 µM (≈ 656 µg/mL) in [5], 921 µM (≈ 623 µg/mL) in data set [11] and 195 µM (≈ 132 µg/mL) in data set [17]. For the same compound, the values for the pIC50 in [6], in [8] and in data set [10] were 6.59, less than 4.05 and 6.44, respectively. For the same compound, the fraction unbound (commonly the share of the substance not bound to proteins or other matrix) at 0.2 µM in [7] came out at 0.034. Besides, the Stability result in data set [9] and in data set [21] was “Stable” throughout. Further, in [10], the Kb was determined as 49 nM. Besides, the pKi (commonly −log10 of the Ki, conventionally taken in molar units) in data set [12] was 8.20; in data set [14], 8.68. Also, in data set [13], the fraction unbound at 10 µM came out at 0.033. For the same compound, the “fold change (FC)” value in data set [19] is 0.54. The fraction unbound at 2 µM in data set [20] was determined as 0.044.

As to `CCCCCOC(=O)N1CCN(C(=O)[C@H](CCC(=O)O)NC(=O)c2cc(N3CCC(C(N)=O)CC3)cc(-c3ccccc3)n2)CC1`, the Vd in [1] came to 2.2 L/kg. For the same compound, the half-life in data set [4] was 36 min. Besides, the Stability entry in data set [9] and in [21] was “Stable” throughout. Moreover, the negative logarithm of the IC50 (pIC50) (as a rule, the IC50 on a negative log10 scale, so that one unit is a factor of ten) in data set [10] is 5.62. In [14], this compound showed a pKi of 8.19. In addition, in data set [22], the bioavailability – broadly, the share of a dose that reaches the circulation, judged against a reference dose that is usually intravenous – worked out at 2%. The clearance in data set [16] is 44 mL/min/kg. The “fold change (FC)” value in data set [19] turned out to be 0.9.
